According to patent US9168286B2, “Methods and compositions for use in treatment of patients with autoantibody positive disease” (Human Genome Sciences, Inc., priority 2005, dated 2015):

How the values were obtained:
subjects with SLE [1] = test: Phase 2 clinical trial of belimumab in SLE with extension and continuation trial: biologic markers (B cells, autoantibodies, Ig isotypes, C3/C4); assay type: in vivo, human; parameters: median percent change in CD20+ B cells (reduction) / median percent change in plasmacytoid B cells (CD20+/CD138+) (reduction) / median percent change in activated B cells (CD20+/CD69+) (reduction) / percent of subjects with significant anti-dsDNA reduction / IgE reduction: concentration or dose not given beside the values; settings: for percent of subjects with significant anti-dsDNA reduction: non-responders; for IgE reduction: subjects with elevated IgE (>114 KU/L) at baseline; for median percent IgG reduction: weeks 52-128
Description: Of the patients who completed 52 weeks of treatment in the randomized, double-blind, placebo-controlled Phase 2 trial (see example 1), 96% (351/364) elected to enter the 24-week extension phase of the trial, and 92% (321/351) of those who entered completed it.
Serum autoantibodies, Ig isotypes and complement (C3, C4) were measured at 1-3 month intervals. In addition, the population with baseline serologic activity (ANA ≧1:80 or anti-dsDNA Ab ≧30IU; 72% of the original cohort herein called seropositive patients or seropositive subjects) was evaluated for SS, physician global assessment (PGA 0-3 units), BILAG, […] Functional Index (SFI) and autoantibody status at 1-3 month intervals.

subjects with SLE [2] = settings: human, in vivo
Description: 449 subjects with SLE by ACR criteria (Tan et al., Arthritis Rheum. 25:1271-7, (1982); and Hochberg et al., Arthritis Rheum. 40:1725, (1997)), with a history of measurable autoantibodies and SELENA SLEDAI score ≧4 at screening were dosed.
Subjects who completed the 52-week treatment period were given the option to continue the study for a 24-week extension period. […] B-cells were analyzed every 1-2 months by 4-color FACS (CD19, CD20, CD27, CD69, CD38, CD138 and CD45). Serum autoantibody, including anti-dsDNA Ab, Ig isotypes, total protein, and albumin levels were obtained at the same visits. The likelihood ratio chi-squared, Wilcoxon test or t-test was used to analyze the changes in the biological markers.

subjects with RA [3] = test: Phase 2 clinical trial of belimumab in rheumatoid arthritis: safety; assay type: in vivo, human
Source text: (§1) ACR20 response increased to approximately 40% at Week 48.

subjects with RA [4] = test: Phase 2 clinical trial of belimumab in rheumatoid arthritis: ACR20 response; assay type: in vivo, human
Source text: as §1

[5] = each measurement during weeks 8-52, p<0.01
[6] = week 52, all treatment groups combined, p<0.002
[7] = week 76, all treatment groups combined

## belimumab: an antibody that neutralizes Neutrokine-alpha protein
Subjects with SLE [1]; [5]
  CD19+ B cell counts, median percent change from baseline: Significant reductions
  activated B cell (CD20+/CD69+) counts, median percent change from baseline: Significant reductions
  naïve B cell (CD20+/CD27−) counts, median percent change from baseline: Significant reductions
Subjects with SLE [1]; each measurement during weeks 16-52, p<0.01
  plasmacytoid B cell (CD20+/CD138+) counts, median percent change from baseline: Significant reductions
Subjects with SLE [1]; low baseline C3 (n=135), week 52, placebo −1%
  increase of C3: 6%
Subjects with SLE [1]; low baseline C3, week 76
  increase of C3: 10%
Subjects with SLE [1]; low baseline C3, week 96
  increase of C3: 15%
Subjects with SLE [1]; low baseline C3, week 128
  increase of C3: 18%
Subjects with SLE [1]; low baseline C4 (n=180), week 52, p=0.0126, placebo 14%
  increase of C4: 33%
Subjects with SLE [1]; low baseline C4, week 76
  increase of C4: 46%
Subjects with SLE [1]; low baseline C4, week 96
  increase of C4: 57%
Subjects with SLE [1]; low baseline C4, week 128
  increase of C4: 67%
Subjects with SLE [1]; n=85, weeks 52-128, placebo week 52=5%
  Anti-Sm reverted from positive at baseline to negative: 26-36%
Subjects with SLE [1]; n=125, week 52, placebo week 52=17%
  subjects with hypergammaglobulinemia (>1618 mg/dL) at baseline normalized: 45%
Subjects with SLE [1]; n=125, week 128
  subjects with hypergammaglobulinemia (>1618 mg/dL) at baseline normalized: 57%
Subjects with SLE [1]; n=205, weeks 52-128, placebo week 52=2%
  RNP reverted from positive at baseline to negative: 9-27%
Subjects with SLE [1]; week 52
  percent of subjects with significant anti-dsDNA reduction: 19%
  IgE reduction: 44%
  CD19+ B cells and naïve B cells (CD20+/CD27−): significantly reduced
  memory cell populations: preserved
Subjects with SLE [1]; week 128
  percent of subjects with significant anti-dsDNA reduction: 32%
  IgE reduction: 57%
  median reduction of serum IgA: 14%
  median reduction of serum IgE: 41%
  median reduction of serum IgG: 9%
  median reduction of serum IgM: 40%
  subjects with significant anti-dsDNA reduction (≧50% reduction or become negative): 47%
Subjects with SLE [1]; patients with low C4 at baseline, each measurement during weeks 4-52, p≦0.01
  C4 complement levels, median percent change from baseline: significant increase
Subjects with SLE [1]; subjects with anti-dsDNA ≧30 IU/ml at entry, as early as week 4, through week 52, vs placebo
  anti-dsDNA titer, median percent change from baseline: significant reduction
Subjects with SLE [1]; subjects with elevated IgG at baseline
  median percent IgG reduction: 14-18%
Subjects with SLE [1]; subjects with normal IgG at baseline
  median percent IgG reduction: 7-8%
Subjects with SLE [1]; week 24, all treated combined vs placebo, p<0.0001
  cell counts of CD19+, naïve, activated and plasmacytoid B cells, median percent change from baseline: significant reduction
Subjects with SLE [1]; [6]
  median percent change in CD20+ B cells (reduction): 54%
  median percent change in plasmacytoid B cells (CD20+/CD138+) (reduction): 62%
Subjects with SLE [1]; week 52, baseline positive, p<0.002, placebo 9%
  reduction of anti-dsDNA Ab: 30%
Subjects with SLE [1]; week 52, p<0.002
  median percent change in activated B cells (CD20+/CD69+) (reduction): 70%
Subjects with SLE [1]; week 52, placebo 0%
  median reduction of serum IgE: 34%
Subjects with SLE [1]; week 52, placebo 3%
  median reduction of serum IgA: 14%
Subjects with SLE [1]; week 52, placebo 5%
  median reduction of serum IgM: 29%
Subjects with SLE [1]; week 52, placebo 17%
  subjects with significant anti-dsDNA reduction (≧50% reduction or become negative): 30%
Subjects with SLE [1]; week 52, placebo up 3%
  median reduction of serum IgG: 10%
Subjects with SLE [1]; week 52, placebo/standard of care 30.6%, p=0.02
  increase of plasma cells (CD20−/CD138+) over baseline: 72.5%
Subjects with SLE [1]; week 76
  additional anti-dsDNA+ subjects converted to negative: 3 subjects
  median reduction of serum IgA: 15%
  median reduction of serum IgE: 35%
  median reduction of serum IgG: 12%
  median reduction of serum IgM: 34%
  reduction of anti-dsDNA Ab: 28%
Subjects with SLE [1]; [7]
  median percent change in CD20+ B cells (reduction): 61%
  median percent change in activated B cells (CD20+/CD69+) (reduction): 84%
  median percent change in plasmacytoid B cells (CD20+/CD138+) (reduction): 60%
Subjects with SLE [1]; week 104
  median reduction of serum IgA: 14%
  median reduction of serum IgE: 37%
  median reduction of serum IgG: 10%
  median reduction of serum IgM: 35%
Subjects with SLE [2]
  safety, including adverse events (AE), AE severity, infections or lab toxicity: No clinically significant differences
Subjects with RA [3]; 1, 4, 10 mg/kg, 24 weeks
  tolerability: well tolerated at all doses
Subjects with RA [3]; continued treatment in the extension period
  tolerability: well tolerated
Subjects with RA [4]; 1 mg/kg treatment group vs placebo, 24 weeks, p=0.0097
  ACR20 response: statistically superior
Subjects with RA [4]; 1, 4, 10 mg/kg
  dose-response relationship for efficacy, safety, biomarker effects: not apparent
Subjects with RA [4]; Week 48 (extension period)
  ACR20 response: approximately 40%
Subjects with RA [4]; all active treatment groups combined vs placebo, 24 weeks, p=0.0213
  ACR20 response: statistically superior
Subjects with RA [4]; patients with DAS28 >5.1, no previous anti-TNF therapy, and/or rheumatoid factor, IV days 0, 14, 28 then every four weeks until week 24
  symptoms associated with rheumatoid arthritis, by subgroup: more likely to ameliorate symptoms associated with rheumatoid arthritis
Subjects with RA [4]; subjects with autoantibody positive disease (RF or anti-CCP) or positive for CRP at baseline
  ACR20 responses in subgroups: improved ACR20 responses
